Like-named read-outs stand apart in the source and are kept apart here.
Assays:
[1] = target: T1, PARP2 (Homo sapiens, UniProt Q9UGN5); design: method as in PMID 34482781; conditions: values greater than 1.0 indicate selectivity towards PARP2; cited from earlier work
T1 construct: purchased BPS Bioscience (San Diego, CA)

[2] = target: T1, PARP2; assay: PARP2 colorimetric activity assay kit (BPS Bioscience); assay type: biochemical; conditions: for IC50: dose-response, mean ± SD, n = 3; for SI (selectivity index) IC50(PARP1)/IC50(PARP2): values greater than 1.0 indicate selectivity towards PARP2
[3] = target: T2, PARP1 (Homo sapiens, UniProt P09874); assay: PARP1 colorimetric activity assay kit (BPS Bioscience); assay type: biochemical; conditions: dose-response, mean ± SD, n = 3
T2 construct: purchased BPS Bioscience (San Diego, CA)
T2 sequence (P09874 whole entry): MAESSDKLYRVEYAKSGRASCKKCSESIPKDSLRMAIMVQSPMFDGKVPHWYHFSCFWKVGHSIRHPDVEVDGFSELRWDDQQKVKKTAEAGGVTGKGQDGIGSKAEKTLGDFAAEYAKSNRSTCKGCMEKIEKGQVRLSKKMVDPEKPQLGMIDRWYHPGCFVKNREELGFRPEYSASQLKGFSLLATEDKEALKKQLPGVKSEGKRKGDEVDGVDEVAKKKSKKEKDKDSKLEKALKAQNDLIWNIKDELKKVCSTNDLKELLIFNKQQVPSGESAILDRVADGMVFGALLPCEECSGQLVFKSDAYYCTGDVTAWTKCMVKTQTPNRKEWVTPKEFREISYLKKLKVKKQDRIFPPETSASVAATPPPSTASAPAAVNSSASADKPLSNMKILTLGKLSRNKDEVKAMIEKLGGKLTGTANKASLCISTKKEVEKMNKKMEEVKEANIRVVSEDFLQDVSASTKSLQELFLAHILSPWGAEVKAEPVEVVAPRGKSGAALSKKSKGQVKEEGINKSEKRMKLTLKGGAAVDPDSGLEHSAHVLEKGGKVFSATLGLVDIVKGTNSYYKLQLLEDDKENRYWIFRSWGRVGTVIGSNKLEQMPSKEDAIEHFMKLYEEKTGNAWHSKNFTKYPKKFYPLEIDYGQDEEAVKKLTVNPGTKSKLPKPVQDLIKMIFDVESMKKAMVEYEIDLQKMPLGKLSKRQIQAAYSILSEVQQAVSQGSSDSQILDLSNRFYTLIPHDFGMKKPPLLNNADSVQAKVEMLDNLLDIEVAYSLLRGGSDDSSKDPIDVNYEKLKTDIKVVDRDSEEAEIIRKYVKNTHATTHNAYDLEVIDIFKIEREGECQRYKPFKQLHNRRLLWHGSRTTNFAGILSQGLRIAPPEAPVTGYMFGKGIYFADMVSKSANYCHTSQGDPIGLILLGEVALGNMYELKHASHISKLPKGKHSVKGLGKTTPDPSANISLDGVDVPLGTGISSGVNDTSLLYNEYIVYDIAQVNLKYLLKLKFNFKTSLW

[4] = target: T2, PARP1; assay: as above; assay type: biochemical; conditions: 1 µM concentration of the inhibitor, mean ± SD, n = 3
Protocol: The initial screening was performed against PARP1 at 1 µM concentration of each compound, in triplicate (n = 3) measurements.

[5] = Solubility in pH 7.4 phosphate buffer; assay type: physicochemical; conditions: aqueous buffer; pH 7.4 0.01 M phosphate buffer solution
[6] = Stability in the presence of hepatic S9 fraction; assay type: in vitro ADME
[7] = Stability in the presence of human liver microsomes; assay type: in vitro ADME
[8] = Stability in human plasma; assay type: in vitro ADME; conditions: after incubation (4 h) with human plasma
[9] = Plasma protein binding; assay type: in vitro ADME

T1 sequence (Q9UGN5 whole entry): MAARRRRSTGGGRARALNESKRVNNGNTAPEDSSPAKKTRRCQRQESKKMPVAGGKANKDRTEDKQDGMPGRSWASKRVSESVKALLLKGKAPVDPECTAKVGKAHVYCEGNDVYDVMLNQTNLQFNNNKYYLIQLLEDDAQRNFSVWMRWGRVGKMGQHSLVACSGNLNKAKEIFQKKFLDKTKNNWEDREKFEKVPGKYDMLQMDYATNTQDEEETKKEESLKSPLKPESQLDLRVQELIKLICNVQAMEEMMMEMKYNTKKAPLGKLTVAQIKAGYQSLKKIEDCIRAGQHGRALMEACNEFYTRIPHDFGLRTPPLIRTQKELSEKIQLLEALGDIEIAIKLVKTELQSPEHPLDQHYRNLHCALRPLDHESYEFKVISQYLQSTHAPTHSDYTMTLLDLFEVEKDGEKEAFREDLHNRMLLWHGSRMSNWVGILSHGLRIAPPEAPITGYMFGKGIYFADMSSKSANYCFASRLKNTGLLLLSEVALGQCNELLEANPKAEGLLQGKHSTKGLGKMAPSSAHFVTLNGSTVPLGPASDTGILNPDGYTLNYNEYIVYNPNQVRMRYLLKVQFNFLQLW

SMILES	IC50 [2]	SI (selectivity index) IC50(PARP1)/IC50(PARP2) [2]	IC50 [3]	inhibition at 1 µM [4]	further results
O=C1NCC(C(=O)N2CCC(N3CCCCC3)CC2)c2ccccc21 (stereo not shown) [Compound 1a]					SI (selectivity index) IC50(PARP1)/IC50(PARP2) [1]: 2.23
C[C@H]1NC(=O)c2ccccc2[C@@H]1C(=O)N1CCC(N2CCCCC2)CC1 [Compound 2m]	29.2 ± 3.4 nM	3.28	95.7 ± 17.7 nM		
CC(C)C[C@H]1NC(=O)c2ccccc2[C@@H]1C(=O)N1CCC(N2CCCCC2)CC1 [Compound 2g]	105 ± 20.8 nM	0.83	87 ± 8.3 nM		
CC(C)[C@H]1NC(=O)c2ccccc2[C@@H]1C(=O)N1CCC(N2CCCCC2)CC1 [Compound 2d]			160 ± 18.6 nM		
O=C1N[C@H](C2CC2)[C@@H](C(=O)N2CCC(N3CCCCC3)CC2)c2ccccc21 [Compound 2e]	18.3 ± 4.5 nM	1.44	26.4 ± 4.1 nM		
O=C1NC2(CCCC2)[C@@H](C(=O)N2CCC(N3CCCCC3)CC2)c2ccccc21 [Compound 2k]				10.6 ± 9.7%	
CC1(C)NC(=O)c2ccccc2[C@@H]1C(=O)N1CCC(N2CCCCC2)CC1 [Compound 2h]				4 ± 7.4%	
O=C1N[C@H](c2ccccc2)[C@@H](C(=O)N2CCC(N3CCCCC3)CC2)c2ccccc21 [Compound 2a]	69.5 ± 12.8 nM	1.26	87.9 ± 10.2 nM		
O=C1NC(C2CC2)C(C(=O)N2CCC(N3CCCCC3)CC2)c2ccc(F)cc21 (stereo not shown) [Compound 6, 4-([1,4′-bipiperidine]-1′-carbonyl)-3-cyclopropyl-7-fluoro-3,4-dihydroisoquinolin-1(2H)-one]	4.3 ± 0.5 nM	5.1	22 ± 3.2 nM		solubility [5]: > 100 µM; Stability S9 [6]: 0.1 µL/min/mg; Stability HLM [7]: 3.8 µL/min/mg; Stability Plasma (% compound remaining) [8]: 100%; PPB (plasma protein binding) [9]: 71.0 % bound
O=C1NC2(CCCCC2)[C@@H](C(=O)N2CCC(N3CCCCC3)CC2)c2ccccc21 [Compound 2i]				12.1 ± 7.2%	
O=C1N[C@H](C2CCCC2)[C@@H](C(=O)N2CCC(N3CCCCC3)CC2)c2ccccc21 [Compound 2l]	> 500 nM		> 500 nM		
O=C1N[C@H](c2ccc(F)cc2)[C@@H](C(=O)N2CCC(N3CCCCC3)CC2)c2ccccc21 [Compound 2b]	39.9 ± 7.3 nM	1.39	55.4 ± 8.8 nM		
O=C(c1cc(Cc2n[nH]c(=O)c3ccccc23)ccc1F)N1CCN(C(=O)C2CC2)CC1 [Olaparib, reference compound]					solubility [5]: > 100 µM; Stability S9 [6]: 1.1 µL/min/mg; Stability HLM [7]: 15 µL/min/mg; Stability Plasma (% compound remaining) [8]: 100%; PPB (plasma protein binding) [9]: 90.2 % bound
O=C1NC2(CCOCC2)[C@@H](C(=O)N2CCC(N3CCCCC3)CC2)c2ccccc21 [Compound 2j]				5.1 ± 6.6%	
CC(C)(C)[C@H]1NC(=O)c2ccccc2[C@@H]1C(=O)N1CCC(N2CCCCC2)CC1 [Compound 2f]				24.1 ± 6%	
CC[C@H]1NC(=O)c2ccccc2[C@@H]1C(=O)N1CCC(N2CCCCC2)CC1 [Compound 2c]	11 ± 2.2 nM	4.05	44.6 ± 5.6 nM		

Reference: paper PMC8409965, “Three-component Castagnoli-Cushman reaction with ammonium acetate delivers 2-unsubstituted isoquinol-1-ones as potent inhibitors of poly(ADP-ribose) polymerase (PARP)” (Journal of Enzyme Inhibition and Medicinal Chemistry, 2021)
